Measured values from patent publication US11400104B2, “Skeletal removal of bisphosphonates” (The Regents of the University of California, priority 2016, dated 2022).

What was measured:
[1] = test system: mouse femur trabecular bone; assay: micro CT evaluation of mouse femur trabecular structure (anti-resorptive function in vivo); conditions: IV 184 μM×100 μL; femurs 2 weeks after injection; FIG. 14
Method: FIG. 19A to FIG. 19C present evidence that certain alkylidene bisphosphonates can be used to displace active BPs in vivo in the mouse model. […] FIG. 19B outlines the protocol for the experiments using MHDP to treat C57B16 mice. An ONJ-like lesion was generated by ZOL IV injection into the mouse, followed by extraction of the maxillary first molar. One day prior to the tooth extraction, a group of mice received intra-oral injection of 2 μg MHDP and another group received IV injection of 100 μg MHDP. FIG. 19C presents images of the mouse maxilla.
This study determines the anti-resorptive function of FL-BP in vivo, as compared to ZOL. Female B6 mice were injected with 50 μM ZOL (n=6), 50 μM FL-BP (n=6) or 0.9% NaCl vehicle solution (control: n=6) via tail vein. Three weeks later, mice were euthanized and femur and L4/L5 were harvested. After fixed in 10% buffered formalin, bone samples were subjected to micro CT analysis. The anti-resorptive function were quantitatively established by the trabecular bone three-dimensional morphometry (e.g., BV/TV, Tb.N, Tb.Th, TbSp). FL-BPs with minimal or no pharmacological BP function are used.
Mice were IV injected with 0.9% NaCl (vehicle solution), ZOL (184 μM×100 μL=5.0 μg/animal) or AF647-ZOL (184 μM×100 μL=22.0 μg/animal) and femurs were harvested 2 weeks after injection. The micro CT data were compared.

[2] = hydroxyapatite (HAP) binding affinity, relative retention times normalized to RIS; conditions: FIG. 7
Method: FIG. 7 is a bar graph showing hydroxyapatite (HAP) binding affinity of Zoledronate (ZOL), ROX-RIS, 5-FAM-ZOL, and AF647-ZOL. Relative retention times were normalized to RIS.
Hydroxyapatite assays indicate that the FL-BPs generally retain substantial affinity for bone mineral that reflect the affinity of the BP component and to a lesser extent, the affinity of the conjugated fluorophore. Hydroxyapatite (Macro-Prep® Ceramic hydroxyapatite Type II […]) was obtained from Bio-Rad Laboratories, Inc. Hercules, Calif. Accurately weighed hydroxyapatite powder (1.4-1.6 mg) was suspended in a 4 mL clear vial containing the appropriate volume of assay buffer (0.05% (wt/vol) Tween20, 10 μM EDTA and 100 mM HEPES pH=7.4) for 3 hours. Hydroxyapatite was then incubated with increasing amounts of FAM-BP and ROX-BP (0, 25, 50, 100, 200, and 300 μM). Samples were gently shaken for 3 hours at 37° C. in appropriate volume of assay buffer (0.05% (wt/vol) Tween20, 10 μM EDTA and 100 mM HEPES pH=7.4). Subsequent to the equilibrium period, the vials were centrifuged at 10,000 rpm for 5 minutes to separate the solids and the supernatant. 0.3 mL of the supernatant was collected and the equilibrium solution concentration is measured by using Shimadzu UV-VIS spectrometer. For the calibration series, FL-BP probe standards were prepared by serial dilution from the stock solution with the same isotherm buffer to give the range from 0 to 400 μM. Calibration curves were constructed using standard solutions of the target FL-BPs. Fluorescent emission can also be used to calculate the binding parameters. Nonspecific binding was measured with a similar procedure in the absence of hydroxyapatite as control. Binding parameters (Kd and Bmax, represent the equilibrium dissociate constant and maximum number of binding sites, respectively) were calculated using the PRISM program (Graphpad, USA). The binding parameters of each compound was measured in 5 independent experiments. […]

mouse cranial bone = assay: cranial bone displacement: AF647-ZOL pre-adsorbed via IV, FAM-ZOL sub-periosteal injection; format: in vivo; conditions: IV injection; cryo-cross sections
Method: FIG. 12A to FIG. 12C show the displacement and replacement of AF647-ZOL and 5-FAM-ZOL. FIG. 12A are fluorescent images of cranial bone. AF647-ZOL (50 μM) was pre-adsorbed on cranial bone via IV injection. 5-FAM-ZOL at the indicated doses was directly injected to the sub-periosteal space. […] The first bars of each set are for AF647-ZOL and the second bars of each set are for 5-FAM-ZOL. *, P<0.05 vs Veh by Dunnett's test.
Mice were pre-treated by 100 μl of 50 μM AF647-ZOL retro-orbital IV injection. Six days later, mice received sub-periosteal injection to cranial bone with 10 μl of 0 μM, 1 μM, 10 μM, or 50 μM FAM-ZOL. The cranial bone was harvested and soft tissues were removed. The fluorescent signals of AF647 and FAM were measured by standardized fluorescent biophotonics. The cranial bones were then prepared for cryosection. Cross-sections were made by the tape method and evaluated by confocal laser scanning microscopy.

## CC1(C)C(C=CC=CC=C2N(CCCS(=O)(=O)O)c3ccc(S(=O)(=O)O)cc3C2(C)CCCCCC(=O)NCC(O)C[n+]2ccn(CC(O)(P(=O)(O)O)P(=O)(O)O)c2)=[N+](CCCS(=O)(=O)O)c2ccc(S(=O)(=O)O)cc21 (stereo not drawn) [AF647-ZOL]
[1]
  bone structural parameters: did not change any of bone structural parameters
[2]
  influence of the fluorophore on hydroxyapatite affinity: small reduction
Mouse cranial bone
  location of AF647-ZOL labeling in cranial bone: external and internal bone surfaces, as well as trabecular surface
